Experimental data published in patent US6218431A, “Substituted biphenyls” (Bayer Corporation, priority 1997, dated 2001).
pIC50: −log10 of the molar value.

What follows are molecules tested against T1, glucagon receptor (Homo sapiens, UniProt P47871) (assay: glucagon receptor binding assay (125I-glucagon, CHO-HGR membranes)). Settings: 20 μM; reported where 20 μM did not reduce glucagon binding by 50%.
T1 construct: expressed in transfected cells; host or cells: Chinese Hamster Ovary cells (CHO-HGR), membranes
Description: The affinity for the glucagon receptor of compounds of the present invention is determined by the glucagon receptor binding assay. Membranes were prepared from Chinese Hamster Ovary cells expressing the glucagon receptor (CHO-HGR) by scraping the cells into hypotonic lysis buffer (10 mM Tris, pH 7.4, 2 mM EDTA, 5 mM MgCl2 and 1 mM PMSF) and subjecting the material to Polytron homogenization. Nuclei were removed by a 15-min 800×g centrifugation step conducted at 4° C. Membranes containing the receptor were collected by centrifugation at 15,000×gfor 15 min at 4° C. The membranes were washed once in lysis buffer and suspended in 0.25 M sucrose, 10 mM Tris, 5 mM EDTA, pH 7.4. The membranes were used in ligand binding studies as reported (Yoo-Warren, H., Willse, A. G., Hancock, N., Hull, J., McCaleb, M., and Livingston, J. Regulation of Rat Glucagon Receptor Expression. Biochem. Biophysical Res. Commun. 1994, 205, 347-353). In brief, 10 ug of membrane protein was incubated in 130 μl of binding buffer that consisted of 20 mM Tris, […], 1 mM EDTA, 1 mg/ml BSA, and 1 mg/ml bacitracin. The membrane suspension was placed in each well of a 96-well filtration plate (glass fiber type C, Millipore). […] Following the addition of test compound, 50 μl of ^125 I-glucagon (9 fmol) (NEN) was added to each well. Control wells contained membranes, 0.5% DMSO (solvent for test compounds), radiolabeled glucagon without and with excess native glucagon (1 μM) to establish nonspecific binding. The plates were incubated for 60 min at room temperature, and then filtered on a Mllipore vacuum apparatus. Following a wash step with ice-cold PBS/0.1% BSA, the filters were punched into test tubes, and the membrane bound radioactivity was determined.

T1 sequence (P47871 26-477): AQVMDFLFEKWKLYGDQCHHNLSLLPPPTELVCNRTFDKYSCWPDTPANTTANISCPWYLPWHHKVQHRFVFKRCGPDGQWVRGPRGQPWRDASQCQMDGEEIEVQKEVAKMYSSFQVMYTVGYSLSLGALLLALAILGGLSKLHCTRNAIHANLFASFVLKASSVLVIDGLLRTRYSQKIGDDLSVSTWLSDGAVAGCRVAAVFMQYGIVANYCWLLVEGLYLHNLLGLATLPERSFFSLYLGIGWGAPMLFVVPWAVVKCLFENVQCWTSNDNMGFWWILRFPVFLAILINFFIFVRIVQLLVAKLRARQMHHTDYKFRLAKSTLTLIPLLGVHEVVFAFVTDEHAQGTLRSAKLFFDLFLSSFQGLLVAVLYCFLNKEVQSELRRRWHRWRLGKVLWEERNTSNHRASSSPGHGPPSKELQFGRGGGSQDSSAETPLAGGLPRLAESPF

inhibition at 20 µM [%] | Compound
46.7 | CCCCCc1c(COC)nc(C(C)C)c(CO)c1-c1ccc(F)cc1 [Example 201, 2-Methoxymethyl-3-pentyl-4-(4-fluorophenyl)-5-hydroxymethyl-6-isopropylpyridine]
27.4 | CCCCCc1c(C(C)C)nc(C(C)C)c(CO)c1-c1ccccc1OC [Example 173, 2,6-Diisopropyl-3-hydroxymethyl-4-(2-methoxyphenyl)-5-pentylpyridine]
24.8 | CC(C)c1nc(C(C)C)c(CCCCO)c(-c2ccc(F)cc2)c1CO [Example 88, 2,6-Diisopropyl-3-hydroxymethyl-4-(4-fluorophenyl)-5-(4-hydroxy-butyl)pyridine]
46.3 | CCCCCc1c(C(C)C)nc(C(C)C)c(CO)c1-c1cccc(C)c1 [Example 140, 2,6-Diisopropyl-3-hydroxymethyl-4-(3-methylphenyl)-5-pentylpyridine]
2.73 | CC(C)=Cc1c(C)nc(C)c(CO)c1-c1ccccc1 [Example 2]
38.5 | CCC(O)c1c(C(C)C)nc(C(C)C)c(CO)c1-c1ccc(F)cc1 (racemic) [Example 94, (±)-2,6-Diisopropyl-3-hydroxymethyl-4-(4-fluorophenyl)-5-(1-hydroxy-propyl)pyridine]
40.2 | CC(C)c1nc(C(C)C)c(CN2CCOCC2)c(-c2ccc(F)cc2)c1CO [Example 69, 2,6-Diisopropyl-3-hydroxymethyl-4-(4-fluorophenyl)-5-(morpholinomethyl)pyridine]
26.1 | C#Cc1ccccc1-c1c(C=CCCC)c(C(C)C)nc(C(C)C)c1CO [Example 156, 2,6-Diisopropyl-3-hydroxymethyl-4-(2-ethynylphenyl)-5-(pent-1-enyl)-pyridine]
36 | CC(C)c1nc(C(C)C)c(CCCN(C)C)c(-c2ccc(F)cc2)c1CO [Example 89, 2,6-Diisopropyl-3-hydroxymethyl-4-(4fluorophenyl)-5-[(3-dimethyl-amino)propyl]pyridine]
34 | CCCC=Cc1c(C(C)C)nc(C(C)C)c(CO)c1-c1ccccc1C [Example 141, 2,6-Diisopropyl-3-hydroxymethyl-4-(2-methylphenyl)-5-(pent-1-enyl)-pyridine]
46 | CCCCCc1c(C(C)C)nc(C(C)C)c(CO)c1-c1ccc(F)c(C(O)c2ccc(F)cc2)c1 (stereo not drawn) [Example 181, 2,6-Diisopropyl-3-hydroxymethyl-4-[4-fluoro-3-(α-hydroxy-4-fluorobenzyl)phenyl]-5-pentylpyridine]
43.2 | CCC(OC)c1c(C(C)C)nc(C(C)C)c(CO)c1-c1ccc(F)cc1 (racemic) [Example 99, (±)-2,6-Diisopropyl-3-hydroxymethyl-4-(4-fluorophenyl)-5-(1-methoxy-5-propyl)pyridine]
26.5 | CCCCC(O)c1c(C(C)C)nc(C(C)C)c(CO)c1-c1ccc(F)cc1 (racemic) [Example 95, (±)-2,6-Diisopropyl-3-hydroxymethyl-4-(4-fluorophenyl)-5-(1-hydroxy-pentyl)pyridine]

Same assay, conditions: 125I-glucagon; 60 min at room temperature; read-out: IC50

pIC50 | Compound
5.40 | CC1=CC(C)(C)Cc2c1nc(C(C)C)c(CO)c2-c1ccc(F)cc1 [Example 236, 2-Isopropyl-3-hydroxymethyl-4-(4-fluorophenyl)-5,6-dihydro-6,6,8-trimethylquinoline]
6.00 | CC(C)c1nc(C(C)C)c(CSc2cccc(F)c2)c(-c2ccc(F)cc2)c1CO [Example 59, 2,6-Diisopropyl-3-hydroxymethyl-4-(4-fluorophenyl)-5-[(3-fluoro-phenyl)thio]methylpyridine]
6.15 | CCCCCCCc1c(C(C)C)nc(C(C)C)c(CO)c1-c1ccc(F)cc1 [Example 35, 2,6-Diisopropyl-3-hydroxymethyl-4-(4-fluorophenyl)-5-heptylpyridine]
5.22 | CC(C)c1nc(C(C)C)c(CNC2CC2)c(-c2ccc(F)cc2)c1CO [Example 77, 2,6-Diisopropyl-3-hydroxymethyl-4-(4-fluorophenyl)-5-(cyclopropyl-amino)methylpyridine]
6.52 | CCCc1c(C(C)C)cc(C(C)C)c(C(C)O)c1-c1ccc(F)cc1 (single isomer, unassigned; (+)) [Example 245, (+)-3,5-Diisopropyl-2-(1-hydroxyethyl)-6-propyl-4'-fluoro-1,1'-biphenyl]
6.12 | CC(C)c1nc(C(C)C)c(CSCCc2ccccc2)c(-c2ccc(F)cc2)c1CO [Example 65, 2,6-Diisopropyl-3-hydroxymethyl-4-(4-fluorophenyl)-5-[(phenethyl)-thiomethyl]pyridine]
6.12 | CCCCc1c(C(C)C)nc(C(C)C)c(CO)c1-c1ccc(F)cc1 [Example 24, 2,6-Diisopropyl-3-hydroxymethal-4-(4fluorophenyl)-5-butylpyridine]
6.22 | CC(C)c1nc(C(C)C)c(CO)c(-c2ccc(F)cc2)c1/C=C/c1ccccc1 [Example 34, 2,6-Diisopropyl-3hydroxymethyl-4-(4-fluorophenyl)-5-[2(E)-phenyl-ethenyl]pyridine]
5.80 | COc1ccccc1SCc1c(C(C)C)nc(C(C)C)c(CO)c1-c1ccc(F)cc1 [Example 60, 2,6-Diisopropyl-3-hydroxymethyl-4-(4-fluorophenyl)-5-[(2-methoxy-phenyl)thio]methylpyridine]
5.10 | CC(C)=Cc1c(C(C)C)nc(C(C)C)c(CO)c1-c1ccccc1 [Example 11]
5.72 | CC(C)c1nc(C(C)C)c(CC=Cc2ccccc2)c(-c2ccc(F)cc2)c1CO [Example 82, 2,6-Diisopropyl-3-hydroxymethyl-4-(4-fluorophenyl)-5-(3-phenyl-2-propenyl)pyridine]
5.96 | CCCCCC=Cc1c(C(C)C)nc(C(C)C)c(CO)c1-c1ccc(F)cc1 [Example 32, 2,6-Diisopropyl-3-hydroxymethyl-4-(4-fluorophenyl)-5-(1-heptenyl)-pyridine]
6.00 | CC(C)CCc1c(C(C)C)nc(C(C)C)c(CO)c1-c1ccc(F)cc1 [Example 29, 2,6-Diisopropyl-3-hydroxymethyl-4-(4-fluorophenyl)-5-(3-methylbutyl)pyridine]
5.35 | CCCC=Cc1c(C(C)C)nc(C(C)C)c(CO)c1-c1ccc(F)cc1F [Example 150, 2,6-Diisopropyl-3-hydroxymethyl-4-(2,4-difluorophenyl)-5-(pent-1-enyl)pyridine]
5.82 | Cc1cccc(CCCc2c(C(C)C)nc(C(C)C)c(CO)c2-c2ccc(F)cc2)c1 [Example 85, 2,6-Diisopropyl-3-hydroxymethyl-4-(4-fluorophenyl)-5-[3-(3-methyl-5-phenyl)propyl]pyridine]

Compound | pIC50
CCCCCc1c(C(C)C)nc(C(C)C)c(CO)c1-c1cccc(F)c1 [Example 128, 2,6-Diisopropyl-3-hydroxymethyl-4-(3-fluorophenyl)-5-pentylpyridine] | 5.52
CCCCCc1c(C(C)C)nc(C(C)C)c(CO)c1-c1ccc(F)c(F)c1 [Example 159, 2,6-Diisopropyl-3-hydroxymethyl-4-(3,4-difluorophenyl)-5-pentyl-pyridine] | 5.96
CCCCCc1c(C(C)C)nc(C(C)C)c(CO)c1-c1ccccc1F [Example 138, 2,6-Diisopropyl-3-hydroxymethyl-4-(2-fluorophenyl)-5-pentylpyridine] | 5.05

Same assay, conditions: IC50, 125I-glucagon; 60 min at room temperature

Compound | pIC50
CCCCCc1c(C(O)CCC)nc(C(C)C)c(CO)c1-c1ccc(F)cc1 (centres unmarked) [Example 211, 2-(1-Hydroxybutyl)-3-pentyl-4-(4-fluorophenyl)-5-hydroxymethyl-6-isopropylpyridine] | 4.72
